In assay [1] the target is T1, drTRPM2 (TRPM2 from zebrafish) (Danio rerio, UniProt A0A0R4IMY7).
T1 construct: isolated MHR1/2 domain, residues 1-419 of drTRPM2, N-terminal His6-tag
T1 sequence (A0A0R4IMY7 1-419): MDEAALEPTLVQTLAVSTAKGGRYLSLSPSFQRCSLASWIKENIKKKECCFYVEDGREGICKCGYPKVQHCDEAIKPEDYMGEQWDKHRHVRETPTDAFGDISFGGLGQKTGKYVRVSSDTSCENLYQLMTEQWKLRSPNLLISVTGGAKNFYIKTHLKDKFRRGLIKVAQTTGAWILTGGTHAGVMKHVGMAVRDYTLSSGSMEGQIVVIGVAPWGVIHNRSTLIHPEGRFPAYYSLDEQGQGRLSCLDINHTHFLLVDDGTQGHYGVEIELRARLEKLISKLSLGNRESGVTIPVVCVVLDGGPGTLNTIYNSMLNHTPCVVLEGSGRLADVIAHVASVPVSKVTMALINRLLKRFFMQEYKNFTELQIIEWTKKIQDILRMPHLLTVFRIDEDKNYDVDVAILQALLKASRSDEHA
Nature of the assay: isothermal titration calorimetry (ITC), purified domain, […] °C. Format: binding.

Another assay has as its target T2, human TRPM2 (Homo sapiens, UniProt O94759).
T2 construct: full-length channel stably expressed in HEK293 cells
Nature of the assay: whole-cell patch clamp, […] coinfused with […] ADPR. The format is cell-based. On the technique in general: In patch-clamp work, channel activity is measured electrically.

The structures appear in SMILES notation.

T2 sequence (O94759 whole entry): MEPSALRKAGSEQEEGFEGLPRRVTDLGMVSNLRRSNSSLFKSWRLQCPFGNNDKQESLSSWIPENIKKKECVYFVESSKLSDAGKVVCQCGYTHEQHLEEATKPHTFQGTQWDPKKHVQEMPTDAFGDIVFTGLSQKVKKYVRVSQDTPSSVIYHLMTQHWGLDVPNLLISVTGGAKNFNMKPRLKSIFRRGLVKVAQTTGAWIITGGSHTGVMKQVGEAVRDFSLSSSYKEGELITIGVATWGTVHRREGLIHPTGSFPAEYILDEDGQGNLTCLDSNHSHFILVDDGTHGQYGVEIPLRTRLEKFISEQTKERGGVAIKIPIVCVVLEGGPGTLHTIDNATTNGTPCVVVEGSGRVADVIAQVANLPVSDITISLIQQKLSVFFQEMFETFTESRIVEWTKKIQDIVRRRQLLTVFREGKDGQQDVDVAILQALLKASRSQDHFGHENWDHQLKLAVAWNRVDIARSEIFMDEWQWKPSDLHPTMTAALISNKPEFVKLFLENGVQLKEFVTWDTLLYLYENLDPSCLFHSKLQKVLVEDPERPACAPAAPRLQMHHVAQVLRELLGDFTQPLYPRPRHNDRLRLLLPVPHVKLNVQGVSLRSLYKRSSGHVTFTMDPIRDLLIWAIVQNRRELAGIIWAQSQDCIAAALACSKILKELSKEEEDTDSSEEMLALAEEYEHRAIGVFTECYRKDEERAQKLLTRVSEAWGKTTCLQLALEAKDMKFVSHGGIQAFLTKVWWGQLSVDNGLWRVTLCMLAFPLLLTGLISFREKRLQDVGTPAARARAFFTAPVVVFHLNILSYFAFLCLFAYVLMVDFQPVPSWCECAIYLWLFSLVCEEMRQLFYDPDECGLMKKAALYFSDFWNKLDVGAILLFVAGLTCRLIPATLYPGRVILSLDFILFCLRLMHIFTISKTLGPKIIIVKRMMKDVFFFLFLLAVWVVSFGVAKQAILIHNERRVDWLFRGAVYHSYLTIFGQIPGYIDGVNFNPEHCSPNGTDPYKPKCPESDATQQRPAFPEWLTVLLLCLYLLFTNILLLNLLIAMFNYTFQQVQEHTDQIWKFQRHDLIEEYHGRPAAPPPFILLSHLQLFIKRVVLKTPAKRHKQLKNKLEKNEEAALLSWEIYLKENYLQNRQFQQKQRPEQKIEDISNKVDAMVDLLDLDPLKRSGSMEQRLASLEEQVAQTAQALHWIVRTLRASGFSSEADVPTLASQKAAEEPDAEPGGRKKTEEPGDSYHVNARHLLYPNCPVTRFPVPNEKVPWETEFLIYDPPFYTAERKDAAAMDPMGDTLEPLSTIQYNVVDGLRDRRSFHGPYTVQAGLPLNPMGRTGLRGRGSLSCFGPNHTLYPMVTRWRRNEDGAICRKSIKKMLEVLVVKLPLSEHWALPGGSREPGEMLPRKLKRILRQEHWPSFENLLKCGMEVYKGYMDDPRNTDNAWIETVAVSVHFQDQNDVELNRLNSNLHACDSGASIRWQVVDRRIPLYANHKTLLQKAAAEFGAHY

As for `Nc1ncnc2c1nc(Br)n2[C@@H]1O[C@H](COP(=O)(O)OP(=O)(O)OC[C@H]2OC(O)[C@H](O)[C@@H]2O)[C@@H](O)[C@H]1O` (stereo partly drawn) [8-Br-ADPR], the Kd in assay [1] is 1.4 µM. Also, the “whole-cell patch clamp, 1 mM coinfused with 125 μM ADPR” value on human TRPM2 was 8-Br-ADPR and 8-Br-cADPR reduce the ADPR-induced current in TRPM2-expressing HEK293 cells.

With `Nc1ncnc2c1ncn2[C@@H]1O[C@H](COP(=O)(O)OP(=O)(O)OC[C@H]2OC(O)[C@H](O)[C@@H]2O)[C@@H](O)[C@H]1O` (stereo partly drawn) [ADPR], in assay [1], the affinity, expressed as Kd, was 2.2 µM.

The Kd is the concentration at which binding is half-saturated. Low readings indicate tighter binding, high ones weaker binding.

Source of the values: article PMC8949931, “cADPR Does Not Activate TRPM2” (International Journal of Molecular Sciences, 2022).
